Laboratory results published in ChEMBL document CHEMBL2346501, “Synthesis and evaluation of coumarin derivatives as potential dual-action HIV-1 protease and reverse transcriptase inhibitors” (Bioorg Med Chem, 2013).

How the values were obtained:
Protease = Protease (Human immunodeficiency virus 1, UniProt Q9YQ12); assay: Inhibition of HIV1 protease
[1] = target: Human immunodeficiency virus type 1 reverse transcriptase (Human immunodeficiency virus 1, UniProt Q72547); assay: Inhibition of HIV1 reverse transcriptase
[2] = target: Human immunodeficiency virus type 1 reverse transcriptase (Human immunodeficiency virus 1) (UniProt Q72547); assay: Inhibition of HIV1 reverse transcriptase at 50 uM relative to control
[3] = target: Protease (Human immunodeficiency virus 1) (UniProt Q9YQ12); assay: Inhibition of HIV1 protease at 50 uM relative to control
Protease (Human immunodeficiency virus 1), sequence (Q9YQ12 as listed by the source): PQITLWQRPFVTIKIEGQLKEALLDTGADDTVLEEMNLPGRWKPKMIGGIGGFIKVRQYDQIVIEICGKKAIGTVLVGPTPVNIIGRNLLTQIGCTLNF

Protease, sequence (Q9YQ12 whole entry): as the sequence (Q9YQ12 as listed by the source) above

## Cc1cn([C@H]2C[C@H](n3cc(CNCc4cc5cc(Cl)ccc5oc4=O)nn3)[C@@H](CO)O2)c(=O)[nH]c1=O
Protease
  IC50: 24.8 µM
[1]
  IC50: 102 µM
[2]
  inhibition: 24%
[3]
  inhibition: 56%

## Cc1cn([C@H]2C[C@H](n3cc(CNCC(=O)N(Cc4ccccc4)Cc4cc5cc(Cl)ccc5oc4=O)nn3)[C@@H](CO)O2)c(=O)[nH]c1=O
Protease
  IC50: 29.5 µM
[1]
  IC50: 3.69 µM
[2]
  inhibition: 99%
[3]
  inhibition: 58%

## CC(C)c1nc(CN(C)C(=O)N[C@H](C(=O)N[C@@H](Cc2ccccc2)C[C@H](O)[C@H](Cc2ccccc2)NC(=O)OCc2cncs2)C(C)C)cs1
[3]
  inhibition: 72%

## Cc1cn([C@H]2C[C@H](n3cc(CNCc4cc5cc(Br)ccc5oc4=O)nn3)[C@@H](CO)O2)c(=O)[nH]c1=O
Protease
  IC50: 28.9 µM
[1]
  IC50: 6.1 µM
[2]
  inhibition: 94%
[3]
  inhibition: 57%

## COc1cccc2cc(CN(Cc3ccccc3)C(=O)CNCc3cn([C@H]4C[C@H](n5cc(C)c(=O)[nH]c5=O)O[C@@H]4CO)nn3)c(=O)oc12
Protease
  IC50: 22.7 µM
[1]
  IC50: 2.88 µM
[2]
  inhibition: 97%
[3]
  inhibition: 60%

## Cc1cn([C@H]2C[C@H](n3cc(CNCc4cc5ccccc5oc4=O)nn3)[C@@H](CO)O2)c(=O)[nH]c1=O
Protease
  IC50: 27.1 µM
[1]
  IC50: 5.59 µM
[2]
  inhibition: 92%
[3]
  inhibition: 61%

## Cc1cn([C@H]2C[C@H](n3cc(CNCC(=O)N(Cc4ccccc4)Cc4cc5cc(Br)ccc5oc4=O)nn3)[C@@H](CO)O2)c(=O)[nH]c1=O
Protease
  IC50: 32 µM
[1]
  IC50: 4.24 µM
[2]
  inhibition: 94%
[3]
  inhibition: 52%

## CCOc1cccc2cc(CNCc3cn([C@H]4C[C@H](n5cc(C)c(=O)[nH]c5=O)O[C@@H]4CO)nn3)c(=O)oc12
Protease
  IC50: 23.3 µM
[1]
  IC50: 114 µM
[2]
  inhibition: 21%
[3]
  inhibition: 62%

## COc1cccc2cc(CNCc3cn([C@H]4C[C@H](n5cc(C)c(=O)[nH]c5=O)O[C@@H]4CO)nn3)c(=O)oc12
Protease
  IC50: 21.6 µM
[1]
  IC50: 106 µM
[2]
  inhibition: 29%
[3]
  inhibition: 64%

## CCOc1cccc2cc(CN(Cc3ccccc3)C(=O)CNCc3cn([C@H]4C[C@H](n5cc(C)c(=O)[nH]c5=O)O[C@@H]4CO)nn3)c(=O)oc12
Protease
  IC50: 27.3 µM
[1]
  IC50: 2.86 µM
[2]
  inhibition: 97%
[3]
  inhibition: 58%

## Cc1cn([C@H]2C[C@H](n3cc(CNCC(=O)N(Cc4ccccc4)Cc4cc5ccccc5oc4=O)nn3)[C@@H](CO)O2)c(=O)[nH]c1=O
Protease
  IC50: 35.1 µM
[1]
  IC50: 3.4 µM
[2]
  inhibition: 96%
[3]
  inhibition: 52%
